US20230130103A1, “TARGETED PHARMACOLOGICAL THERAPEUTICS IN UVEAL MELANOMA” (Washington University, priority 2017, published 2023)
Starred links: 1 amine or outer side, 2 acyl side, 3 side chain; linkers in the order of their positions; H or OH if unused. Positions of bridges follow the written chain, without caps; N, C: chain ends. Non-standard residues stand in square brackets, D forms with d. Residues, ends and D or L forms follow the SMILES beside them. *: point of attachment. Leu(3R-OH,Nα-propionyl) = CCC(=O)N[C@H](C(=O)*)[C@H](O)C(C)C; X1 = CC(C)[C@@H](O[*:3])[C@H](N[*:1])C(=O)[*:2]; X2 = CC(C)[C@H](O[*:3])[C@@H](N[*:1])C(=O)[*:2]; NMeaThr = CN[C@H](C(=O)O)[C@H](C)O; dPhLac = O=C(O)[C@H](O)Cc1ccccc1; NMeA = CN[C@@H](C)C(=O)O; NMeDha = C=C(NC)C(=O)O

Test system: 92.1 UM cells
Experiment: Gene Set Enrichment Analysis (GSEA) of RNA-Seq data
Type: cell-based, Human
[1] = gene set REACTOME_ADAPTIVE_IMMUNE_SYSTEM
[2] = gene set REACTOME_APC_C_CDC20_MEDIATED_DEGRADATION_OF_MITOTIC_PROTEINS
[3] = gene set REACTOME_APC_C_CDH1_MEDIATED_DEGRADATION_OF_CDC20_AND_OTHER_APC_C_CDH1_TARGETED_PROTEINS_IN_LATE_MITOSIS_EARLY_G1
[4] = gene set REACTOME_B[?]_INFECTION
[5] = gene set REACTOME_CHOLESTEROL_BIOSYNTHESIS
[6] = gene set REACTOME_DOUBLE_STRAND_BREAK_REPAIR
[7] = gene set REACTOME_E2F_MEDIATED_REGULATION_OF_DNA_REPLICATION
[8] = gene set REACTOME_EXTENSION_OF_TELOMERES
[9] = gene set REACTOME_FACTORS_INVOLVED_IN_MEGAKARYOCYTE_DEVELOPMENT_AND_PLATELET_PRODUCTION
[10] = gene set REACTOME_G0_AND_EARLY_G1
[11] = gene set REACTOME_HOST_INTERACTIONS_HIV_FACTORS
[12] = gene set REACTOME_LICAM_INTERACTIONS
[13] = gene set REACTOME_METABOLISM_OF_NON_CODING_RNA
[14] = gene set REACTOME_PREFOLDIN_MEDIATED_TRANSFER_OF_SUBSTRATE_TO_CCT_TRIC
[15] = gene set REACTOME_TRANSPORT_OF_MATURE_MRNA_DERIVED_FROM_AN_INTRONLESS_TRANSCRIPT
[16] = gene set REACTOME_[?]_REMOVAL_FROM_CHROMATIN
[17] = gene set REACTOM_GLUCONE_TRANSPORT
[18] = gene set RMEIN_GLUCOCORTICOID_THERAPY_DN
[19] = gene set SAKAL_CHRONIC_HEPATITIS_VS_LIVER_CANCER_UP
[20] = gene set SASAKI_ADULT_T_CELL_LEUKEMIA
[21] = gene set SASSON_RESPONSE_TO_FORSKOLIN_UP
[22] = gene set SASSON_RESPONSE_TO_GONADOTRPHINS_UP
[23] = gene set SCHMIDT_FOR_TARGETS_IN_LIMB_BUD_UP
[24] = gene set SCIBETTA_KDMS8_TARGETS_DN
[25] = gene set SENESE_HDAC1_TARGETS_UP
[26] = gene set SENESE_HDAC2_TARGETS_UP
[27] = gene set SHEPARD_CRUSH_AND_BURN_MUTANT_DN
[28] = gene set SMIRNOV_RESPONSE_TO_IR_6HR_DN
[29] = gene set WAKASUGI_HAVE_ZNF143_BINDING_SITES
[30] = gene set WELSCH_BRCA1_TARGETS_DN
[31] = gene set WHITFIELD_CELL_CYCLE_5
[32] = gene set WHITFIELD_CELL_CYCLE_M_G2
[33] = gene set [?]_APOPTOSIS_BY_REOVIRUS_INFECTION_DN
[34] = gene set [?]_E2F3_ONCOGENIC_SIGNATURE
[35] = gene set [?]_ESTRADIOL_RESPONSE_6HR_UP
[36] = gene set [?]_HYPOXIA_NOT_VIA_[?]
[37] = gene set [?]_OVARIAN_CANCER_INVAVSIVE_VS_LMP_UP
[38] = gene set [?]_PSEUDOPODIA_HAPTOTAXIS_DN
[39] = gene set […]_NEUTROPHIL_AT_SKIN_WOUND_DN
[40] = gene set mARTORIATE_MDM4_TARGETS_FETAL_LIVER_DN

For `C=C1C(=O)N[C@@H](C)C(=O)N(C)[C@@H](C)C(=O)N[C@H]([C@@H](OC(=O)[C@@H](NC(=O)CC)[C@H](O)C(C)C)C(C)C)C(=O)N(C)[C@@H]([C@H](C)OC)C(=O)O[C@H](C(C)C)[C@H](NC(C)=O)C(=O)O[C@H](Cc2ccccc2)C(=O)N1C` [FR, [(1S)-1-[(3S,6R,9S,12S,18R,21S,22R)-21-acetamido-18-benzyl-3-[(1S)-1-methoxyethyl]-4,9,10,12,16-pentamethyl-15-methylidene-2,5,8,11,14,17,20-heptaoxo-22-propan-2-yl-1,19-dioxa-4,7,10,13,16-pentazacyclodocos-6-yl]-2-methylpropyl] (2S,3R)-3-hydroxy-4-methyl-2-(propanoylamino)pentanoate] (Ac-[X1][dPhLac][NMeDha]A[NMeA][X2](Leu(3R-OH,Nα-propionyl))[NMeaThr](Me); ester 1-C), the ES [1] was 0.3979, the NES [1] was 2.13 and the ES [2] was 0.5518. It also gave an NES [2] of 2.142, an ES [3] of 0.56 and an NES [3] of 2.187. The ES [4] was 0.4639, the NES [4] was 2.188 and the ES [5] was 0.6781. For the same compound, the NES [5] was 2.138, the ES (gene set REACTOME_DNA_REPAIR) was 0.4835 and the NES (gene set REACTOME_DNA_REPAIR) was 2.1. It also gave an ES [6] of 0.6821, an NES [6] of 2.156 and an ES [7] of 0.5585. For the same compound, the NES [7] was 2.256, the ES [8] was 0.6128 and the NES [8] was 2.062. The ES [9] was 0.4943, the NES [9] was 2.346 and the ES [10] was 0.5589. It also gave an NES [10] of 2.109, an ES [11] of 0.4871 and an NES [11] of 2.139. The ES [12] was 0.4901, the NES [12] was 2.064 and the ES [13] was 0.5725. It also gave an NES [13] of 2.142, an ES (gene set REACTOME_NEP_NS2_INTERACTS_WITH_THE_CELLULAR_EXPORT_MACHINERY) of 0.6472 and an ES [14] of 0.6276. For the same compound, the NES [14] was 2.059, the ES [15] was 0.6258 and the NES [15] was 2.187. The ES [16] was 0.5346, the NES [16] was 2.104 and the ES [17] was 0.6343. For the same compound, the NES [17] was 2.211, the NES (gene set REN_ALVEOLAR_RHABDOMYOSARCOMA_DN) was 2.084 and the ES [18] was 0.429. For the same compound, the NES [18] was 2.253, the ES [19] was 0.4953 and the NES [19] was 2.051. The ES [20] was 0.4693, the NES [20] was 2.213 and the ES [21] was 0.4936. The NES [21] was 2.087, the ES [22] was 0.5309 and the NES [22] was 2.23. It also gave an ES [23] of 0.6919, an NES [23] of 2.232 and an ES [24] of 0.4986. It also gave an NES [24] of 2.107, an ES [25] of 0.4141 and an NES [25] of 2.222. The ES [26] was 0.4933, the NES [26] was 2.179 and the ES (gene set SHEPARD_BMYB_TARGETS) was 0.5123. For the same compound, the NES (gene set SHEPARD_BMYB_TARGETS) was 2.125, the ES [27] was 0.4366 and the NES [27] was 2.055. The NES (gene set SHIPP_D[?]CL_VS_FOLLICULAR_LYMPHOMA_UP) was 2.142, the ES [28] was 0.4874 and the NES [28] was 2.135. For the same compound, the ES (gene set SP1_Q4_01) was 0.4346, the NES (gene set SP1_Q4_01) was 2.133 and the ES (gene set TBK1DF_DN) was 0.434. The NES (gene set TBK1DF_DN) was 2.201, the ES [29] was 0.5464 and the NES [29] was 2.135. The ES [30] was 0.4808, the NES [30] was 2.25 and the ES [31] was 0.4808. It also gave an NES [31] of 2.252, an ES [32] of 0.4742 and an NES [32] of 2.151. It also gave an ES (gene set WINTER_HYPOXIA_UP) of 0.5079, an NES (gene set WINTER_HYPOXIA_UP) of 2.091 and an ES (gene set [?]ENPORAIN_17513976.21_2) of 0.5458. The ES [33] was 0.4088, the NES [33] was 2.137 and the ES [34] was 0.4474. For the same compound, the NES [34] was 2.256, the ES [35] was 0.4279 and the NES [35] was 2.138. It also gave an ES [36] of 0.3777, an NES [36] of 2.125 and an ES [37] of 0.4908. For the same compound, the NES [37] was 2.191, the ES [38] was 0.396 and the NES [38] was 2.222. The ES (gene set [?]_[?]1) was 0.4368, the NES (gene set [?]_[?]1) was 2.127 and the ES (gene set [?]_[?]_Q6) was 0.372. It also gave an NES (gene set [?]_[?]_Q6) of 2.07, an ES [39] of 0.4325 and an NES [39] of 2.066. The ES [40] was 0.4046 and the NES [40] was 2.198.
